Source: US20090069370A1, “AZACYCLYLISOQUINOLINONE AND ISOINDOLINONE DERIVATIVES AS HISTAMINE-3 ANTAGONISTS” (Wyeth, priority 2007, published 2009)
Counter-ions that a name gives are not always drawn.

Target: T1, Human Histamine H3 Receptor (Homo sapiens, UniProt Q9Y5N1)
T1 construct: expressed in transfected cells; host or cells: HEK293T cells, stably transfected; membrane preparation
Assay: Methyl histamine binding in human histamine H3 receptor cell line
Settings: membranes of stably transfected HEK293T cells; radioligand 1 nM; Ki from IC50 by Cheng-Prusoff
Procedure: Evaluation of Methyl Histamine Binding in Human Histamine H3 Receptor Cell Line
The affinity of test compounds for the histamine 3 (H3) receptor is evaluated in the following manner. Stably transfected HEK293T cells are grown in DMEM containing 10% heat inactivated FBS and G-418 (500 ug/ml). Cells are scraped from the plate, transferred to centrifuge tubes, washed one time in PBS by centrifugation in a Sorvall RT7 Plus centrifuge (2000 rpm 10 minutes, 4° C.). The resulting pellets are stored at −80° C. until ready for use. Cells are re-suspended in buffer (50 mM Tris pH=7.5) and placed in a Dounce homogenizer, douncing ten times to homogenize cells. The homogenate is spun down by centrifugation (Sorvall RT7 Plus, 1800 rpm 10 minutes, 4° C.). The supernatant is placed in a Corex tube and spun down by centrifugation (Sorvall RC 5c Plus, 17,000 rpm 20 minutes, 4° C.). The pellet is resuspended in buffer (50 mM Tris, pH 7.5). Protein concentration (ug/ul) is determined using the Micro-BCA Protein Determination. The binding assay is set up in a 96 well microtiter plate in a total volume of 250 uL. Non-specific binding is determined in the presence of 10 uM clobenpropit. The final radioligand concentration is 1 nM. The test compound is serially diluted using the Beckman Biomek2000 to a final approximate range of 100 uM to 100 pM. Membranes are suspended in buffer, homogenized in 2 bursts of ten seconds using a Vitris mechanical homogenizer set at power setting 5. Ten μg of membranes are added to each well. Following a one hour incubation at 30° C., the reaction is terminated by the addition of ice cold buffer and rapid filtration with a Packard Filtermate Harvester through a GF/B filter pre-soaked with 1% PEI for one hour. The plate is dried for one hour at 37° C. and 60 μL Microscint Scintillant is added to each well. The CPM per well is measured on a Packard Top Count NXT. Ki values are determined in nM. The Ki is calculated from the IC50 (i.e. the concentration of competing ligand which displaces 50% of the specific binding of the radioligand). CPM values are expressed as % specific binding and plotted vs compound concentration. A curve is fitted using a four-parameter logistic fit and the IC50 value is determined. The Ki is calculated from this using the Cheng-Prusoff equation: […]=IC50/1+(L/Kd) where L=concentration of free radioligand used in the assay, and Kd is the dissociation constant of the radioligand for the receptor. L is determined for each experiment by counting an aliquot of the diluted radioligand (corresponding to that added to each well) and the Kd has previously been determined under identical conditions for this cell line/radioligand.

T1 sequence (Q9Y5N1 whole entry): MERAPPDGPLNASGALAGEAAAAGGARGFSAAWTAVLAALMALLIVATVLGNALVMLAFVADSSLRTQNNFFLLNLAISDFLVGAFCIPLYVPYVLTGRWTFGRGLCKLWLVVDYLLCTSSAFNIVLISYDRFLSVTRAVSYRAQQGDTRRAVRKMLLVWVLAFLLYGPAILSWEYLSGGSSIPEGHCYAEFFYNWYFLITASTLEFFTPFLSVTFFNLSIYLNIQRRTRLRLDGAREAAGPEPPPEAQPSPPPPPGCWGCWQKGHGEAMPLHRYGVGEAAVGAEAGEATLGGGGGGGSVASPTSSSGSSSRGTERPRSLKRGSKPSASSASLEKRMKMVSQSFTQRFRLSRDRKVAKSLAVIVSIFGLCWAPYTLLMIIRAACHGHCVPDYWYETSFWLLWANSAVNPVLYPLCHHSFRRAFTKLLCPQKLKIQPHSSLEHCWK

Compound	Ki [µM]
COC(=O)c1ccc(Oc2ccc3c(c2)CCN(C2CCN(C4CCC4)CC2)C3=O)cc1 [Example 1, methyl 4-{[2-(1-Cyclobutylpiperidin-4-yl)-1-oxo-1,2,3,4-tetrahydroisoquinolin-6-yl]oxy}benzoate]	0.0501 to 0.1
CC(C)NC(=O)c1ccc(Oc2ccc3c(c2)CCN(C2CCN(C4CCC4)CC2)C3=O)cc1 [Example 6, 4-{[2-(1-Cyclobutylpiperidin-4-yl)-1-oxo-1,2,3,4-tetrahydroisoquinolin-6-yl]oxy}-N-isopropylbenzamide]	0.0101 to 0.025
O=C(NC1CCC1)c1ccc(Oc2ccc3c(c2)CCN(C2CCN(C4CCC4)CC2)C3=O)cc1 [Example 8, N-Cyclobutyl-4-{[2-(1-cyclobutylpiperidin-4-yl)-1-oxo-1,2,3,4-tetrahydroisoquinolin-6-yl]oxy}benzamide]	≤ 0.01
CN(C)C(=O)c1ccc(Oc2ccc3c(c2)CCN(C2CCN(C4CCC4)CC2)C3=O)cc1 [Example 10, 4-{[2-(1-Cyclobutylpiperidin-4-yl)-1-oxo-1,2,3,4-tetrahydroisoquinolin-6-yl]oxy}-N,N-dimethylbenzamide]	0.0101 to 0.025
CCN(CC)C(=O)c1ccc(Oc2ccc3c(c2)CCN(C2CCN(C4CCC4)CC2)C3=O)cc1 [Example 11, 4-{[2-(1-Cyclobutylpiperidin-4-yl)-1-oxo-1,2,3,4-tetrahydroisoquinolin-6-yl]oxy}-N,N-diethylbenzamide]	0.0251 to 0.05
CNC(=O)c1ccc(COc2ccc3c(c2)CCN(C2CCN(C4CCC4)CC2)C3=O)cc1 [Example 16, 4-({[2-(1-Cyclobutylpiperidin-4-yl)-1-oxo-1,2,3,4-tetrahydroisoquinolin-6-yl]oxy}methyl)-N-methylbenzamide]	≤ 0.01
CCNC(=O)c1ccc(COc2ccc3c(c2)CCN(C2CCN(C4CCC4)CC2)C3=O)cc1 [Example 17, 4-({[2-(1-Cyclobutylpiperidin-4-yl)-1-oxo-1,2,3,4-tetrahydroisoquinolin-6-yl]oxy}methyl)-N-ethylbenzamide]	≤ 0.01
O=C(c1ccc(COc2ccc3c(c2)CCN(C2CCN(C4CCC4)CC2)C3=O)cc1)N1CCCC1 [Example 20, 2-(1-Cyclobutylpiperidin-4-yl)-6-{[4-(pyrrolidin-1-ylcarbonyl)benzyl]oxy}-3,4-dihydroisoquinolin-1(2H)-one]	≤ 0.01
N#Cc1ccc(-c2ccc3c(c2)CN(C2CCNCC2)C3=O)cc1 [Example 22, 4-(1-oxo-2-piperidin-4-yl-2,3-dihydro-1H-isoindol-5-yl)benzonitrile hydrochloride]	> 0.1
CN1CCC(N2Cc3cc(-c4ccc(C#N)cc4)ccc3C2=O)CC1 [Example 23, hydrochloride]	> 0.1
N#Cc1ccc(-c2ccc3c(c2)CN(C2CCN(CC4CCCC4)CC2)C3=O)cc1 [Example 27, 4-{2-[1-(Cyclopentylmethyl)piperidin-4-yl]-1-oxo-2,3-dihydro-1H-isoindol-5-yl}benzonitrile]	0.0251 to 0.05
N#Cc1ccc(-c2ccc3c(c2)CN(C2CCN(C4CCC4)CC2)C3=O)cc1 [Example 28, 4-[2-(1-Cyclobutylpiperidin-4-yl)-1-oxo-2,3-dihydro-1H-isoindol-5-yl]benzonitrile]	0.0251 to 0.05
N#Cc1ccc(-c2ccc3c(c2)CN(C2CCN(C4CCCC4)CC2)C3=O)cc1 [Example 29, 4-[2-(1-Cyclopentylpiperidin-4-yl)-1-oxo-2,3-dihydro-1H-isoindol-5-yl]benzonitrile]	0.0101 to 0.025
O=C(O)c1ccc(Oc2ccc3c(c2)CCN([C@@H]2CCN(C4CCC4)C2)C3=O)cc1 [Example 32, (R)-4-(2-(1-cyclobutylpyrrolidin-3-yl)-1-oxo-1,2,3,4-tetrahydroiso-quinolin-6-yloxy)benzoic acid]	> 0.1

The next lines start with the values.

Ki [µM]	Compound
≤ 0.01	CNC(=O)c1ccc(-c2ccc3c(c2)CCN(C2CCN(C4CCC4)C2)C3=O)cc1 (stereo in doubt) [Example 90, (R)-4-(2-(1-cyclobutylpyrrolidin-3-yl)-1-oxo-1,2,3,4-tetrahydro-isoquinolin-6-yl)-N-methylbenzamide hydrochloride]
0.0101 to 0.025	NC(=O)c1ccc(Oc2ccc3c(c2)CCN(C2CCN(C4CCC4)CC2)C3=O)cc1 [Example 3, 4-{[2-(1-cyclobutylpiperidin-4-yl)-1-oxo-1,2,3,4-tetrahydroiso-quinolin-6-yl]oxy}benzamide Hydrochloride]
≤ 0.01	CNC(=O)c1ccc(Oc2ccc3c(c2)CCN(C2CCN(C4CCC4)CC2)C3=O)cc1 [Example 4, 4-{[2-(1-Cyclobutylpiperidin-4-yl)-1-oxo-1,2,3,4-tetrahydroisoquinolin-6-yl]oxy}-N-methylbenzamide]
≤ 0.01	CCNC(=O)c1ccc(Oc2ccc3c(c2)CCN(C2CCN(C4CCC4)CC2)C3=O)cc1 [Example 5, 4-{[2-(1-Cyclobutylpiperidin-4-yl)-1-oxo-1,2,3,4-tetrahydroisoquinolin-6-yl]oxy}-N-ethylbenzamide]
≤ 0.01	O=C(NC1CC1)c1ccc(Oc2ccc3c(c2)CCN(C2CCN(C4CCC4)CC2)C3=O)cc1 [Example 7, 4-{[2-(1-Cyclobutylpiperidin-4-yl)-1-oxo-1,2,3,4-tetrahydroisoquinolin-6-yl]oxy}-N-cyclopropylbenzamide]
0.0101 to 0.025	O=C(NC1CCCC1)c1ccc(Oc2ccc3c(c2)CCN(C2CCN(C4CCC4)CC2)C3=O)cc1 [Example 9, 4-{[2-(1-Cyclobutylpiperidin-4-yl)-1-oxo-1,2,3,4-tetrahydroisoquinolin-6-yl]oxy}-N-cyclopentylbenzamide]
≤ 0.01	O=C(c1ccc(Oc2ccc3c(c2)CCN(C2CCN(C4CCC4)CC2)C3=O)cc1)N1CCCC1 [Example 12, 2-(1-Cyclobutylpiperidin-4-yl)-6-[4-(pyrrolidin-1-ylcarbonyl)phenoxy]-3,4-dihydroisoquinolin-1(2H)-one]
≤ 0.01	NC(=O)c1ccc(COc2ccc3c(c2)CCN(C2CCN(C4CCC4)CC2)C3=O)cc1 [Example 15, 4-({[2-(1-cyclobutylpiperidin-4-yl)-1-oxo-1,2,3,4-tetrahydroiso-quinolin-6-yl]oxy}methyl)benzamide acid hydrochloride]
≤ 0.01	CN(C)C(=O)c1ccc(COc2ccc3c(c2)CCN(C2CCN(C4CCC4)CC2)C3=O)cc1 [Example 18, 4-({[2-(1-Cyclobutylpiperidin-4-yl)-1-oxo-1,2,3,4-tetrahydroisoquinolin-6-yl]oxy}methyl)-N,N-dimethylbenzamide]
≤ 0.01	O=C(NC1CCC1)c1ccc(COc2ccc3c(c2)CCN(C2CCN(C4CCC4)CC2)C3=O)cc1 [Example 19, N-Cyclobutyl-4-({[2-(1-cyclobutylpiperidin-4-yl)-1-oxo-1,2,3,4-tetrahydroisoquinolin-6-yl]oxy}methyl)benzamide]
≤ 0.01	O=C(NC1CCCC1)c1ccc(COc2ccc3c(c2)CCN(C2CCN(C4CCC4)CC2)C3=O)cc1 [Example 21, 4-({[2-(1-Cyclobutylpiperidin-4-yl)-1-oxo-1,2,3,4-tetrahydroisoquinolin-6-yl]oxy}methyl)-N-cyclopentylbenzamide]
> 0.1	CCN1CCC(N2Cc3cc(-c4ccc(C#N)cc4)ccc3C2=O)CC1 [Example 24, 4-[2-(1-Ethylpiperidin-4-yl)-1-oxo-2,3-dihydro-1H-isoindol-5-yl]benzonitrile]
> 0.1	CCCN1CCC(N2Cc3cc(-c4ccc(C#N)cc4)ccc3C2=O)CC1 [Example 25, 4-[1-Oxo-2-(1-propylpiperidin-4-yl)-2,3-dihydro-1H-isoindol-5-yl]benzonitrile]
0.0501 to 0.1	N#Cc1ccc(-c2ccc3c(c2)CN(C2CCN(CC4CC4)CC2)C3=O)cc1 [Example 26, 4-{2-[1-(Cyclopropylmethyl)piperidin-4-yl]-1-oxo-2,3-dihydro-1H-isoindol-5-yl}benzonitrile]
0.0251 to 0.05	N#Cc1ccc(-c2ccc3c(c2)CN(C2CCN(C4CCCCC4)CC2)C3=O)cc1 [Example 30, 4-[2-(1-Cyclohexylpiperidin-4-yl)-1-oxo-2,3-dihydro-1H-isoindol-5-yl]benzonitrile]
≤ 0.01	CNC(=O)c1ccc(Oc2ccc3c(c2)CCN([C@@H]2CCN(C4CCC4)C2)C3=O)cc1 [Example 33, 4-({2-[(3R)-1-cyclobutylpyrrolidin-3-yl]-1-oxo-1,2,3,4-tetrahydroisoquinolin-6-yl}oxy)-N-methylbenzamide]
